Results from patent publication US8822449B2, “Substituted aminoindanes and analogs thereof, and the pharmaceutical use thereof” (Sanofi, priority 2008, dated 2014).

target: T1, sodium-proton exchanger of subtype 3 (NHE3) (Homo sapiens, UniProt P48764); assay: Recovery of intracellular pH (pHi) after acidification in LAP1 cells stably expressing NHE3 (BCECF fluorescence, FLIPR); format: cell-based; details: LAP1, read-out: Activity range (inhibitory effect on NHE3)
T1 construct: expressed in transfected cells
T1 sequence (P48764 26-834): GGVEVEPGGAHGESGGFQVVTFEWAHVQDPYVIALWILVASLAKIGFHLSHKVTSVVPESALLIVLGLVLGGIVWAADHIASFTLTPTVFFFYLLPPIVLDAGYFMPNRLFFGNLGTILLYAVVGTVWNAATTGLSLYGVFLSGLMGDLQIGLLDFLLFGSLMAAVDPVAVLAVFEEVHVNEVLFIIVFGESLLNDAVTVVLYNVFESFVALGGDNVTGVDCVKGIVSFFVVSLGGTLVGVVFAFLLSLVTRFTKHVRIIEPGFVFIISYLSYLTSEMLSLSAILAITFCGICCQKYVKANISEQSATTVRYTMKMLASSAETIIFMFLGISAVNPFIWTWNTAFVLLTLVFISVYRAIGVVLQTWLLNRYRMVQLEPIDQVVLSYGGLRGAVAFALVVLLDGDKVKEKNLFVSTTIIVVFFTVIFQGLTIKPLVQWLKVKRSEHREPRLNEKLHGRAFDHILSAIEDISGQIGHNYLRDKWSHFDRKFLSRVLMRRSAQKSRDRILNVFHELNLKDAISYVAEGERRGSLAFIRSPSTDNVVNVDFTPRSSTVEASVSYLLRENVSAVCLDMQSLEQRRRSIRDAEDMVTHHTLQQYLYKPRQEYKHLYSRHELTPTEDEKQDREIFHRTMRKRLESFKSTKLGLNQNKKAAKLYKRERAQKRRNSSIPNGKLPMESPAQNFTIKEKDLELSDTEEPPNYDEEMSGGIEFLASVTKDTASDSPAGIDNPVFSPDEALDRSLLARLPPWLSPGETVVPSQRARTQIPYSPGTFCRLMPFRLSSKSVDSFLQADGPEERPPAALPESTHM
Method: In this assay, the recovery of the intracellular pH (pHi) of LAP1 cells which stably express the sodium-proton exchanger of subtype 3 (NHE3) after acidification was determined. The recovery occurs even under bicarbonate-free conditions with functional NHE3. To this end, the pHi was determined using the pH-sensitive fluorescent dye BCECF (Molecular Probes, Eugene, Oreg., USA, employing the precursors BCECF-AM). The cells were initially incubated with BCECF (5 μM BCECF-AM) in NH4Cl buffer (NH4Cl buffer: 115 mM cholineCl, 20 mM NH4Cl, 5 mM KCl, 1 mM CaCl2, 1 mM MgCl2, 20 mM Hepes, 5 mM glucose, a pH of 7.4 was adjusted with 1 M KOH). The intracellular acidification was induced by washing the cells incubated in NH4Cl buffer with NH4Cl-free buffer (133.8 mM choline chloride, 4.7 mM KCl, 1.25 mM CaCl2, 1.25 mM MgCl2, 0.97 mM K2HPO4, 0.23 mM KH2PO4, 5 mM Hepes, 5 mM glucose, a pH of 7.4 was adjusted with 1 M KOH). After the washing step, 90 μl of the NH4Cl-free buffer were left on the cells. The pH recovery was started by adding 90 μl of Na^+-containing buffer (133.8 mM NaCl, 4.7 mM KCl, 1.25 mM CaCl2, 1.25 mM MgCl2, 0.97 mM Na2HPO4, 0.23 mM NaH2PO4, 10 mM Hepes, 5 mM glucose, a pH of 7.4 was adjusted with 1 M NaOH) in a measuring instrument (FLIPR, “Fluorometric Imaging Plate Reader”, Molecular Devices, Sunnyvale, Calif., USA). The BCECF fluorescence was determined with an excitation wavelength of 498 nm and the FLIPR emission filter 1 (bandpass from 510 to 570 nm). The subsequent changes in fluorescence as a measure of pH recovery were recorded for two minutes. To calculate the NHE3-inhibitory power of the tested substances, the cells were initially investigated in buffers with which complete or absolutely no pH recovery took place. For complete pH recovery (100%), the cells were incubated in Na^+-containing buffer (see above), and to determine the 0% value were incubated in Na^+-free buffer (see above). The substances to be tested were made up in Na^+-containing buffer. The recovery of the intracellular pH at each tested concentration of a substance was expressed as percent of the maximum recovery.
The IC50 of the respective substance for NHE3 was calculated from the percentages of pH recovery using the program XLFit (idbs, Surrey, UK).

Row | Structure (SMILES) | inhibition at 10 µM
1 | CS(=O)(=O)c1ccc(O[C@H]2c3c(Cl)sc(Cl)c3CC[C@@H]2N2CCCC2)cc1 (racemic) [Example 253, 1-[1,3-dichloro-4-(4-methanesulfonylphenoxy)-4,5,6,7-tetrahydrobenzo[c]thiophen-5-yl]pyrrolidine] | 20 to 50%
2 | CC(=O)Nc1ccccc1OC1c2ccccc2CC1N1CCCC1 (racemic) [Example 635, N-[2-(rac-trans-(1,2)-2-pyrrolidin-1-ylindan-1-yloxy)phenyl]acetamide] | 20 to 50%

same assay, conditions: LAP1 cells stably expressing NHE3; pH recovery after acidification; range 1 is % inhibition at 10 μM; read-out: Activity range (inhibitory effect on NHE3)

Row | Structure (SMILES) | IC50 | inhibition at 10 µM
3 | O=S(=O)(c1ccc(O[C@H]2c3cc(Cl)cc(Cl)c3C[C@@H]2N2CC[C@@H](O)C2)cc1)N1CCOCC1 [Example 744, (R)-1-{trans-(1S,2S)-4,6-Dichloro-1-[4-(morpholine-4-sulfonyl)-phenoxy]-indan-2-yl}-pyrrolidin-3-ol] | 1000 to 10000 nM | 
4 | C[C@@H]1CN([C@H]2Cc3c(Cl)cc(Cl)cc3[C@@H]2Oc2ccc(S(C)(=O)=O)cc2)C[C@H](C)N1 [Example 21, (3R,5S)-1-[trans-(1S,2S)-4,6-dichloro-1-(4-methanesulfonylphenoxy)indan-2-yl]-3,5-dimethylpiperazine] | < 1000 nM | 
5 | NCC1CCN([C@@H]2Cc3ccccc3[C@H]2Oc2ccc(F)cc2F)C1 (mixture of isomers) [Example 602, C-{1-[rac-trans-(1,2)-1-(2,4-difluorophenoxy)indan-2-yl]pyrrolidin-3-yl}methylamine] | 1000 to 10000 nM | 
6 | CS(=O)(=O)c1ccc(O[C@H]2c3cc(Cl)ccc3C[C@@H]2N2CCNCC2)cc1 (racemic) [Example 289, 1-[rac-trans-(1,2)-6-chloro-1-(4-methanesulfonylphenoxy)indan-2-yl]piperazine] | < 1000 nM | 
7 | O[C@@H]1CCN([C@H]2Cc3c(Cl)cc(Cl)cc3[C@@H]2Oc2ccc(-n3ccnc3)cc2)C1 [Example 728, (R)-1-[trans-(1S,2S)-4,6-Dichloro-1-(4-imidazol-1-yl-phenoxy)-indan-2-yl]-pyrrolidin-3-ol] | 1000 to 10000 nM | 
8 | Nc1cccc(O[C@@H]2c3ccccc3C[C@H]2N2CCCC2)c1 (racemic) [Example 401, 3-(rac-trans-(1,2)-2-pyrrolidin-1-ylindan-1-yloxy)phenylamine] | 1000 to 10000 nM | 
9 | CN1CCN([C@H]2Cc3c(Cl)cc(Cl)cc3[C@@H]2Oc2ccc(-n3cncn3)cc2)CC1 [Example 296, 1-[trans-(1S,2S)-4,6-dichloro-1-(4-[1,2,4]triazol-1-ylphenoxy)indan-2-yl]-4-methylpiperazine] |  | 20 to 50%
10 | N[C@H]1CCCN([C@H]2CCc3ccccc3[C@@H]2Oc2ccccc2Br)C1 (racemic) [Example 151, (S)-1-[rac-trans-(1,2)-1-(2-bromophenoxy)-1,2,3,4-tetrahydronaphthalen-2-yl]piperidin-3-ylamine] |  | 20 to 50%
11 | N#Cc1ccc(O[C@H]2c3ccccc3CC[C@@H]2N2CCC[C@H](N)C2)c(F)c1 (racemic) [Example 533, 4-[rac-trans-(1,2)-2-((S)-3-aminopiperidin-1-yl)-1,2,3,4-tetrahydronaphthalen-1-yloxy]-3-fluorobenzonitrile] | < 1000 nM | 
12 | CS(=O)(=O)c1ccc(O[C@H]2c3ccccc3C[C@@H]2CN2CCCC2)cc1 (racemic) [Example 274, 1-[rac-trans-(1,2)-1-(4-methanesulfonylphenoxy)indan-2-ylmethyl]pyrrolidine] | 1000 to 10000 nM | 
13 | CCN(CC)[C@@H]1Cc2ccccc2[C@H]1Oc1ccc(CCOC)cc1 (racemic) [Example 628, Diethyl-{rac-trans-(1,2)-1-[4-(2-methoxyethyl)phenoxy]indan-2-yl}amine] | 1000 to 10000 nM | 
14 | N[C@H]1CCCN([C@H]2CCc3ccccc3[C@@H]2Oc2cccc(F)c2)C1 (racemic) [Example 168, (S)-1-[rac-trans-(1,2)-1-(3-fluorophenoxy)-1,2,3,4-tetrahydronaphthalen-2-yl]piperidin-3-ylamine] |  | 20 to 50%
15 | N[C@H]1CCCN([C@H]2CCc3ccccc3[C@@H]2Oc2ccc(-n3ccnc3)cc2)C1 (racemic) [Example 180, (S)-1-[rac-trans-(1,2)-1-(4-imidazol-1-ylphenoxy)-1,2,3,4-tetrahydronaphthalen-2-yl]piperidin-3-ylamine] |  | 20 to 50%
16 | Cc1nnc(C)n1-c1ccc(O[C@H]2c3cc(Cl)cc(Cl)c3C[C@@H]2N2CCCNCC2)cc1 [Example 347, 1-{trans-(1S,2S)-4,6-dichloro-1-[4-(3,5-dimethyl-[1,2,4]triazol-4-yl)phenoxy]indan-2-yl}-[1,4]diazepane] | < 1000 nM | 
17 | CO[C@@H]1CCN(C2Cc3ccccc3C2Oc2cccc(NC(C)=O)c2)C1 (mixture of isomers) [Example 682, N-{3-[rac-trans-(1,2)-2-((R)-3-methoxypyrrolidin-1-yl)indan-1-yloxy]phenyl}acetamide] | 1000 to 10000 nM | 
18 | CN1CCN([C@H]2Cc3c(Cl)cc(Cl)cc3[C@@H]2Oc2ccc(-n3ccnc3)cc2)CC1 [Example 297, 1-[trans-(1S,2S)-4,6-dichloro-1-(4-imidazol-1-ylphenoxy)indan-2-yl]-4-methylpiperazine] |  | 20 to 50%
19 | N#Cc1ccc(O[C@H]2c3ccccc3CC[C@@H]2N2CCOCC2)cc1F (racemic) [Example 396, 2-fluoro-4-(rac-trans-(1,2)-2-morpholin-4-yl-1,2,3,4-tetrahydronaphthalen-1-yloxy)benzonitrile] |  | 20 to 50%
20 | NS(=O)(=O)c1ccc(OC2c3ccccc3CC2N2CCCC2)cc1 (racemic) [Example 466, 4-(rac-trans-(1,2)-2-pyrrolidin-1-ylindan-1-yloxy)benzenesulfonamide] | < 1000 nM | 
21 | CS(=O)(=O)c1ccc(O[C@H]2c3ccccc3CC[C@@H]2N2CCOCC2)cc1 (racemic) [Example 508, 4-[rac-trans-(1,2)-1-(4-methanesulfonylphenoxy)-1,2,3,4-tetrahydronaphthalen-2-yl]morpholine] |  | 20 to 50%
22 | CS(=O)(=O)c1ccc(O[C@H]2c3ccccc3C[C@@H]2CN2CCOCC2)cc1 (racemic) [Example 487, 4-[1-(4-methanesulfonylphenoxy)indan-2-ylmethyl]morpholine] |  | 20 to 50%
23 | Cc1ccc(F)c(O[C@H]2c3ccccc3CC[C@@H]2N2CCC[C@H](N)C2)c1 (racemic) [Example 155, (S)-1-[rac-trans-(1,2)-1-(2-fluoro-5-methylphenoxy)-1,2,3,4-tetrahydronaphthalen-2-yl]piperidin-3-ylamine] |  | 20 to 50%
24 | CC(=O)Nc1cccc(O[C@H]2c3ccccc3C[C@@H]2N2CCCCC2)c1 [Example 663, N-[3-(trans-(1S,2S)-2-piperidin-1-ylindan-1-yloxy)phenyl]acetamide] | < 1000 nM | 
25 | O=C1CCC(=O)N1c1ccc(O[C@H]2c3cc(Cl)cc(Cl)c3C[C@@H]2N2CC[C@@H](O)C2)c(Cl)c1 [Example 322, 1-{3-chloro-4-[(1S,2S)-4,6-dichloro-2-((R)-3-hydroxypyrrolidin-1-yl)indan-1-yloxy]phenyl}pyrrolidine-2,5-dione] | < 1000 nM | 
26 | Cc1noc(C)c1-c1cc(F)ccc1O[C@H]1c2ccccc2C[C@@H]1N1CCCC1 [Example 503, 4-[5-fluoro-2-(trans-(1S,2S)-2-pyrrolidin-1-ylindan-1-yloxy)phenyl]-3,5-dimethylisoxazole] |  | 20 to 50%
27 | Cc1nnc(C)n1-c1ccc(O[C@H]2c3cc(Cl)cc(Cl)c3C[C@@H]2N2CC[C@@H](O)C2)c(Cl)c1 [Example 122, (R)-1-{trans-(1S,2S)-4,6-dichloro-1-[2-chloro-4-(3,5-dimethyl-[1,2,4]triazol-4-yl)phenoxy]indan-2-yl}pyrrolidin-3-ol] | < 1000 nM | 
28 | NS(=O)(=O)c1ccc(O[C@H]2c3c(Cl)cccc3C[C@@H]2N2CCCC2)cc1 (racemic) [Example 476, 4-(rac-trans-(1,2)-7-chloro-2-pyrrolidin-1-ylindan-1-yloxy)benzenesulfonamide] | 1000 to 10000 nM | 
29 | CN1CC(=O)N(c2ccc(O[C@H]3c4cc(Cl)cc(Cl)c4C[C@@H]3N3CC[C@@H](O)C3)c(Cl)c2)C1=O [Example 422, 3-{3-chloro-4-[(1S,2S)-4,6-dichloro-2-((R)-3-hydroxypyrrolidin-1-yl)indan-1-yloxy]phenyl}-1-methylimidazolidine-2,4-dione] | < 1000 nM | 
30 | Cc1cc(O[C@@H]2c3ccccc3C[C@H]2N2CCC(CN)C2)cc(C)c1C#N (mixture of isomers) [Example 539, 4-[rac-trans-(1,2)-2-(3-aminomethylpyrrolidin-1-yl)indan-1-yloxy]-2,6-dimethylbenzonitrile] | 1000 to 10000 nM | 
31 | Cc1nnc(C2CC2)n1-c1ccc(O[C@H]2c3ccccc3C[C@@H]2N2CCCC2)cc1 (racemic) [Example 448, 3-Cyclopropyl-5-methyl-4-[4-(rac-trans-(1,2)-2-pyrrolidin-1-ylindan-1-yloxy)phenyl]-4H-[1,2,4]triazole] | < 1000 nM | 
32 | N#Cc1ccc(O[C@H]2c3cc(Cl)cc(F)c3C[C@@H]2N2CC[C@@H](O)C2)c(F)c1 [Example 557, 4-[trans-(1S,2S)-6-chloro-4-fluoro-2-((R)-3-hydroxypyrrolidin-1-yl)indan-1-yloxy]-3-fluorobenzonitrile] | 1000 to 10000 nM | 
